Source: PubChem BioAssay AID588838 (Broad Institute, 2011)

tested on: P. falciparum Dd2 in RBCs, SYBR green growth; assay: antimalarial activity against Dd2 parasites – Dd2 strain, red blood cells, dry powder, PfHsp90 inhibitor project, dose response (AID 588838)

SMILES	AC50 [µM]
O=S(=O)(/C=C/c1ccccc1)NC1CCCCCCC1	66.1
O=S(=O)(NC1CC2CCC1C2)c1ccc(Cl)cc1 (stereo unspecified)	98.5
Cc1ccc(OCc2n[nH]c(=S)n2C2CCCCC2)cc1	60.6
O=S(=O)(NC1CCCCCC1)c1ccc(Br)s1	16.3
COc1ccc2c(c1)C=C(C(=O)NCc1ccc(Cl)cc1)CO2	43.9
O=C(CSCC(=O)N1CCCCC1)Nc1nc(-c2ccc(Cl)s2)cs1	40
